How the values were obtained:
[1] = system: mineralocorticoid receptors (MCR); experiment: MCR expression in spiral ganglion neurons (western blot, immunohistochemistry); assay type: in vivo, mouse; conditions: middle-aged mice, ALD treatment vs young adult and middle age controls
Procedure: (§1) Death was confirmed by terminal phlebotomy/exsanguinations and perfusion.
After sacrifice, a cochlear modiolus (CM) was dissected from the temporal bone, & pooled together for measuring NKCC1 protein and mRNA expression. The other CM was prepared for immunohistochemistry as described below. Data was analyzed using one-way ANOVA, and two-way repeated measures ANOVA through GraphPad Prism 5.0 with protein level measurements (Δ Intensity=Background tissue intensity−experimental area intensity) (GraphPad Software, La Jolla, Calif.).
For Western blot and RT-PCR, cells were placed in RIPA buffer and sonicated. Protein concentration was measured using the Bradford method. Proteins were separated by SDS-PAGE. […]
For immunohistochemistry, mice were sacrificed, and one of the cochleae dissected, fixed in 4% paraformaldehyde in PBS overnight at 4° C., decalcification in 10% EDTA in PBS for a week at 4° C., and incubated in cryoprotection solution overnight at 4° C. […] The spiral ganglion neurons were counted by Metamorph imaging software (Molecular Devices, Center Valley, Pa. 18034-0610) and data analyzed by GraphPad Prism (GraphPad Software, Inc. La Jolla, Calif.).
Levels of staining for MCR presence in young adult and middle-aged mice was determined by densitometry analysis (MetaMorph Image Analysis System) of immunocytochemistry sections.

[2] = system: Spiral ganglion neuron (SGN); experiment: Spiral ganglion neuron cell density, H&E staining of cochlear sections; assay type: in vivo, mouse; conditions: upper apical, lower apical, upper basal, lower basal regions; ALD-treated middle-aged mice vs untreated control mice
Procedure: as §1
For immunohistochemistry, mice were sacrificed, and one of the cochleae dissected, fixed in 4% paraformaldehyde in PBS overnight at 4° C., decalcification in 10% EDTA in PBS for a week at 4° C., and incubated in cryoprotection solution overnight at 4° C. The cochleae were embedded into degassed OCT overnight at 4° C., orientated into the cryomold with OCT degassed for 1 hour, then frozen at −80° C. Cryosectioning was performed at 5 μm per section. The cochlear cross sections were stained with hematoxylin and eosin (H&E) and MCR (H-300) (sc-11412, Santa Cruz Bio). The spiral ganglion neurons were counted by Metamorph imaging software (Molecular Devices, Center Valley, Pa. 18034-0610) and data analyzed by GraphPad Prism (GraphPad Software, Inc. La Jolla, Calif.).
Spiral ganglion neuron (SGN) cell density was measured from 4 different topographical area, comparing ALD-treated middle-aged mice to age-matched controls. […] Further, this increase in SGN is correlated with ABR threshold shifts (shown below) in the same mice.

NKCC1 = NKCC1 protein expression in HT-29 cells, Western blot; assay type: cell-based, human
From the text: Cell culture and buffers. […] Arch Oral Biol 52: 411-416, 2007). These include, for example, studies of COMM domain-containing protein 1, which is involved in NKCC1 ubiquitination and transcriptional regulation of epithelial Na^+ channels (ENaC) located in the apical membrane of polarized epithelial cells, in particular, cells in the colon, kidney, and lung, by ALD (Cohen, et al., Induced differentiation in HT29, a human colon adenocarcinoma cell line. J Cell Sci 112: […], 1999, Epple, et al., Early aldosterone effect in distal colon by transcriptional regulation of ENaC subunits. Am J Physiol Gastrointest Liver Physiol 278: G718-G724, 2000, Smith, et al., COMMD1 interacts with the COOH terminus of NKCC1 in Calu-3 airway epithelial cells to modulate NKCC1 ubiquitination. Am J Physiol Cell Physiol 305: C133-C146, 2013). HT-29 cells were grown in DMEM media (Invitrogen, Carlsbad Calif.) with 10% FBS and antibiotics. Cells were grown in a humidified 95%/5% CO2 incubator at 37° C. Experiments were performed at 70-80% confluence.
Western blot. Cell lysates were prepared in RIPA buffer (Pierce 89901; Thermo Scientific, Waltham, Mass.) with protease inhibitor cocktail (78430; Thermo Scientific). Cell samples were homogenized in buffer, followed by centrifugation at 2,000 rpm for 10 min at 4° C. Supernatants were subjected to Western blot analysis by loading 200 μg of protein per lane, after the protein concentrations were determined by Bradford protein assay. Proteins were fractionated by SDS-PAGE gel electrophoresis and transferred to a PVDF blotting membrane (Whatman, Piscataway, N.J.). The blot was incubated with primary antibodies against β-actin and Na—K-2C1 cotransport protein (Cell Signaling, Danvers Mass.); primary antibodies for p-SGK1, SGK1, pNedd4-2, and Nedd4-2 were utilized (concentration 1:1,000). The secondary antibody was horseradish peroxidaseconjugated goat anti-rabbit IgG (1:2,000; Cell Signaling).
Statistical analysis. Images from films were imported into Adobe Photoshop (v 5.0), and further processed using Adobe Photoshop CS and ImageJ (National Institutes of Health) for the densitometry analysis. Data are reported as means±SD. Statistical analyses were performed with PRISM 4.0 (GraphPad Software, San Diego Calif.). Differences were analyzed with a one- or a two-way repeated measures ANOVA as appropriate or a two-way ANOVA followed by Bonferroni post hoc analyses that were corrected for multiple comparisons. Values of P <0.05 were considered significant.

iNOS and nNOS = iNOS and nNOS expression in modiolar tissue samples; assay type: in vivo, mouse; conditions: young adult, control middle-aged, ALD-treated middle-aged mice
Procedure: During treatment, blood pressures were measured for the mice at 2 and 4 months after start of treatment. […] Death was confirmed by terminal phlebotomy/exsanguinations and perfusion. Cell lysates were collected and subject to western blot and RT-PCT analysis. The cells were placed in RIPA buffer and sonicated. Protein concentration was measured using the Bradford method. Proteins were separated by SDS-PAGE. The antibodies used for western blot were: anti-iNOS, nNOS and caspase-3 antibodies (Cell Signaling, Cambridge, Mass.). Total cellular RNA was extracted using the RNeasy Plus Mini Kit (74134). For RT-PCR, 10 ng of total cellular RNA was reverse transcribed and complementary DNA was amplified, using the Enhanced Avian HS RT-PCR-100 Kit (Sigma, HSRT20). Primers used for qRT-PCR were as follows: […]

Question: With C[C@]12CCC(=O)C=C1CC[C@@H]1[C@@H]2[C@@H](O)C[C@]2(C=O)[C@@H](C(=O)CO)CC[C@@H]12 [ALD, aldosterone] as the compound, how does the “MCR expression levels, densitometry of immunocytochemistry sections” value [1] read?
Answer: partially rescued the expression levels seen in the young adult

Question: What about the SGN density [2] of the same compound?
Answer: SGN density was higher

Question: What about the “induction of NKCC1 protein expression” value (NKCC1; ALD 1 μM, MG-132 20 μM, CQ 50 μM, 9 h) of the same compound?
Answer: induce NKCC1 protein expression similarly

Question: And the “decline of NKCC1 protein levels in response to cycloheximide” value (NKCC1; ALD 1 μM, cycloheximide 20 μg/ml, 3, 6, or 9 h, relative to nontreated cells)?
Answer: much slower

Question: And the “threshold of NKCC1 induction (significant response)” value (NKCC1; HT-29 cells)?
Answer: ~10 pM

Question: And the “time by which NKCC1 up-regulation took effect” value (NKCC1; HT-29 cells, ALD 1 μM)?
Answer: ≤ 2 h

Question: And the “NKCC1 protein expression levels” value (NKCC1; HT-29 cells, ALD 1 μM, stable over 12-24 h)?
Answer: upregulated

Question: And the “start of NKCC1 induction after treatment” value (NKCC1; HT-29 cells, ALD (1 nM))?
Answer: 30 to 40 min

Question: What about the “iNOS and nNOS gene expression” value (iNOS and nNOS) of the same compound?
Answer: no alteration in NOS expression

Question: What about the iNOS protein levels (iNOS and nNOS) of the same compound?
Answer: approximately the same

— US10342806B2, “Hormone treatment for age-related hearing loss-presbycusis” (priority 2014, dated 2019)
